Measured values as given in article PMC12717519, “Chemical clues to infection: A pilot study on the differential secondary metabolite production during the life cycle of selected Cordyceps species” (IMA Fungus, 2025).
In brackets after ≈: the same amount, converted by molar mass. Like-named read-outs stand apart in the source and are kept apart here.

Assays:
[1] = test system: macrophages; conditions: ref Namatame et al. 2004; cited from earlier work
Text: (§1) Our study highlights how amino acid substitutions modulate beauveriolides’ bioactivities. […] Thus, the amino acid at this position is crucial for bioactivity. The lack of antimicrobial activity in some beauveriolides, such as those containing HDA, further supports the hypothesis that these molecules may have different functions, such as facilitating insect pathogenicity rather than broad antimicrobial antagonism.

[2] = ref Namatame et al. 2004; cited from earlier work
Text: as §1

[3] = test system: Bacillus subtilis (DSM 10); experiment: microbe, parasite or virus in culture; format: cell-based
Procedure: (§2) Serial dilution assays were performed in 96-well microtiter plates to determine the minimum inhibitory concentrations (MICs) against a panel of yeasts, filamentous fungi, and bacteria, as well as the half-maximal inhibitory concentrations (IC50) against human cell lines, following our previously described protocol ([Charria-Girón et al. 2023]).

[4] = test system: Staphylococcus aureus (DSM 346); experiment: microbe, parasite or virus in culture; format: cell-based
Procedure: as §2

[5] = test system: Human endocervival adenocarcinoma (KB3.1); experiment: cells; format: cell-based
Procedure: as §2

[6] = test system: Mucor hiemalis (DSM 2656); experiment: MIC serial dilution assay; format: cell-based; conditions: serial dilution in 96-well microtiter plates; tested up to 67 µg/mL
Procedure: as §2

[7] = test system: Candida albicans (DSM 1665); experiment: MIC serial dilution assay; format: cell-based; conditions: serial dilution in 96-well microtiter plates; tested up to 67 µg/mL
Procedure: as §2

[8] = test system: Pseudomonas aeruginosa (PA14); experiment: MIC serial dilution assay; format: cell-based; conditions: serial dilution in 96-well microtiter plates; tested up to 67 µg/mL
Procedure: as §2

[9] = test system: Mycobacterium smegmatis (ATCC 700084); experiment: MIC serial dilution assay; format: cell-based; conditions: serial dilution in 96-well microtiter plates; tested up to 67 µg/mL
Procedure: as §2

[10] = test system: Escherichia coli (DSM 1116); experiment: MIC serial dilution assay; format: cell-based; conditions: serial dilution in 96-well microtiter plates; tested up to 67 µg/mL
Procedure: as §2

[11] = test system: Human epidermoid carcinoma (A431); format: cell-based
Procedure: as §2

[12] = test system: Human prostate carcinoma (PC-3); format: cell-based
Procedure: as §2

[13] = test system: Human lung carcinoma (A549); format: cell-based
Procedure: as §2

[14] = test system: beet armyworm (Spodoptera exigua, Lepidoptera); experiment: Virulence of purified compounds against beet armyworm larvae (injection); format: in vivo; conditions: larvae injected with 0.5 µL of DMSO dilutions (40 to 0.625 µg/mL), n = 6 per concentration, 25 °C, concentration of the value not stated
Procedure: To evaluate the virulence of purified compounds against beet armyworm larvae, beauveriolides I (4) and M (5) were selected based on availability, and cytochalasin D served as a positive control. […] Larvae were injected with 0.5 µL of each dilution (n = 6 per concentration), maintained at 25 °C for one week, and monitored daily to assess mortality. Saline ([…]) and DMSO served as negative controls.
For proof of concept, beauveriolides I (4) and M (5) were selected based on availability and tested following the spore-suspension protocol but considering only total mortality, with cytochalasin D, a mycotoxin commonly produced by Metarhizium spp., used as a positive control ([Kobmoo et al. 2024]).

[15] = test system: Human ovarian cancer (SKOV-3); experiment: Cytotoxicity assay; format: cell-based; conditions: serial dilution in 96-well plates
Procedure: as §2

[16] = test system: Human breast adenocarcinoma (MCF-7); experiment: Cytotoxicity assay; format: cell-based; conditions: serial dilution in 96-well plates
Procedure: as §2

[17] = test system: Mouse fibroblast (L929); experiment: Cytotoxicity assay; format: cell-based; conditions: serial dilution in 96-well plates
[18] = test system: Chromobacterium violaceum (DSM 30191); experiment: MIC serial dilution assay; format: cell-based; conditions: serial dilution in 96-well microtiter plates; tested up to 67 µg/mL
Procedure: as §2

[19] = test system: Acinetobacter baumannii (DSM 30008); experiment: MIC serial dilution assay; format: cell-based; conditions: serial dilution in 96-well microtiter plates; tested up to 67 µg/mL
Procedure: as §2

[20] = test system: Rhodotorula glutinis (DSM 10134); experiment: MIC serial dilution assay; format: cell-based; conditions: serial dilution in 96-well microtiter plates; tested up to 67 µg/mL
Procedure: as §2

[21] = test system: Wickerhamomyces anomalus (DSM 6766); experiment: MIC serial dilution assay; format: cell-based; conditions: serial dilution in 96-well microtiter plates; tested up to 67 µg/mL
Procedure: as §2

[22] = test system: Schizosaccharomyces pombe (DSM 70572); experiment: MIC serial dilution assay; format: cell-based; conditions: serial dilution in 96-well microtiter plates; tested up to 67 µg/mL
Procedure: as §2

[23] = Solubility in deuterated solvents (for NMR); format: physicochemical; conditions: observation during NMR sample preparation; deuterated solvents / deuterated DMSO
[24] = serial dilution in 96-well microtiter plates, tested up to 67 µg/mL
[25] = KB3.1, serial dilution in 96-well plates, read-out: IC50

Compound | antiatherogenic effects in macrophages [1] | adverse outcomes in animal studies [2] | MIC [6] | MIC [7] | MIC [8] | MIC [9] | MIC [10] | MIC [3, 24] | MIC [4, 24] | IC50 [5, 25] | IC50 [17] | MIC [18] | MIC [19] | MIC [20] | MIC [21] | MIC [22] | solubility in deuterated solvents [23] | also measured
CCCC[C@H](C)[C@@H]1CC(=O)N[C@@H](Cc2ccccc2)C(=O)N[C@@H](C)C(=O)N[C@H](CC(C)C)C(=O)O1 [Compound 4, beauveriolide I] | potent antiatherogenic effects | without adverse outcomes | n.i. (No inhibition up to 67 µg/mL) | n.i. (No inhibition up to 67 µg/mL) | n.i. (No inhibition up to 67 µg/mL) | n.i. (No inhibition up to 67 µg/mL) | n.i. (No inhibition up to 67 µg/mL) | – | – | – | – | – | – | – | – | – | – | MIC ([3]; DSM 10): 66.6 µg/mL (≈ 137 µM); MIC ([4]; DSM 346): 66.6 µg/mL (≈ 137 µM); IC50 [5]: 13.3 µM; IC50 [11]: 1.2 µM; IC50 [12]: 3.5 µM; IC50 [13]: 0.9 µM; total mortality (TM) in the last two days ([14]; 7-day period): 67%; average total mortality (TM) over the first five days [14]: 33%; IC50 [15]: > 36.5 µM; IC50 [16]: > 36.5 µM
Beauveriolide III [reference compound] | potent antiatherogenic effects | without adverse outcomes | – | – | – | – | – | – | – | – | – | – | – | – | – | – | – | –
Beauveriolide Q [Compound 1] | – | – | n.i. (No inhibition up to 67 µg/mL) | n.i. (No inhibition up to 67 µg/mL) | n.i. (No inhibition up to 67 µg/mL) | n.i. (No inhibition up to 67 µg/mL) | n.i. (No inhibition up to 67 µg/mL) | n.i. (No inhibition up to 67 µg/mL) | n.i. (No inhibition up to 67 µg/mL) | > 36.5 µM | > 36.5 µM | n.i. (No inhibition up to 67 µg/mL) | n.i. (No inhibition up to 67 µg/mL) | n.i. (No inhibition up to 67 µg/mL) | n.i. (No inhibition up to 67 µg/mL) | n.i. (No inhibition up to 67 µg/mL) | poor solubility | –
Beauveriolide R [Compound 2] | – | – | n.i. (No inhibition up to 67 µg/mL) | n.i. (No inhibition up to 67 µg/mL) | n.i. (No inhibition up to 67 µg/mL) | n.i. (No inhibition up to 67 µg/mL) | n.i. (No inhibition up to 67 µg/mL) | n.i. (No inhibition up to 67 µg/mL) | n.i. (No inhibition up to 67 µg/mL) | > 36.5 µM | > 36.5 µM | n.i. (No inhibition up to 67 µg/mL) | n.i. (No inhibition up to 67 µg/mL) | n.i. (No inhibition up to 67 µg/mL) | n.i. (No inhibition up to 67 µg/mL) | n.i. (No inhibition up to 67 µg/mL) | soluble | –
